Experimental data: ChEMBL document CHEMBL4251729, “Novel Triterpenone for Treatment of Viral Diseases-HIV Inhibitors” (ACS Med Chem Lett, 2018)
pIC50: −log10 of the molar value.

What was measured:
[1] = test system: Human immunodeficiency virus 1; test: Antiviral activity against HIV1 92HT599 infected in human MT2 cells assessed as reduction in p24 production in absence of serum by ELISA; format: functional, organism-based
[2] = test system: Human immunodeficiency virus 1; test: Antiviral activity against HIV1 92HT599 infected in human MT2 cells assessed as reduction in p24 production in presence of 40% serum by ELISA; format: functional, organism-based; conditions: Human immunodeficiency virus 1, 92HT599, MT2
[3] = Human immunodeficiency virus 1, 92HT599, MT2

SMILES	pIC50 [1, 3]	pIC50 [2]	pIC50 [1]
CC(C)C1=C2[C@H]3CC[C@@H]4[C@@]5(C)CC[C@H](OC(=O)[C@H]6C[C@@H](C(=O)O)C6(C)C)C(C)(C)[C@@H]5CC[C@@]4(C)[C@]3(C)CC[C@@]2(c2nnc(-c3ccc(Cl)cc3)o2)CC1=O	> 8.00	> 8.00	
CC(C)C1=C2[C@H]3CC[C@@H]4[C@@]5(C)CC[C@H](OC(=O)[C@H]6C[C@@H](C(=O)O)C6(C)C)C(C)(C)[C@@H]5CC[C@@]4(C)[C@]3(C)CC[C@@]2(c2ncc(-c3ccc(Cl)cc3)n2CCN(C)C)CC1=O [listing 1 of 2 here]	7.30 to 8.00		
CC(C)C1=C2[C@H]3CC[C@@H]4[C@@]5(C)CC[C@H](OC(=O)[C@H]6C[C@@H](C(=O)O)C6(C)C)C(C)(C)[C@@H]5CC[C@@]4(C)[C@]3(C)CC[C@@]2(c2ncc(-c3ccc(Cl)cc3)n2CCN(C)C)CC1=O [listing 2 of 2 here]		< 7.30	> 8.00
CC(C)C1=C2[C@H]3CC[C@@H]4[C@@]5(C)CC[C@H](OC(=O)[C@H]6C[C@@H](C(=O)O)C6(C)C)C(C)(C)[C@@H]5CC[C@@]4(C)[C@]3(C)CC[C@@]2(c2ncc(-c3ccccc3)[nH]2)CC1=O	> 8.00	7.30 to 8.00	
CC(C)C1=C2[C@H]3CC[C@@H]4[C@@]5(C)CC[C@H](OC(=O)[C@H]6C[C@@H](C(=O)O)C6(C)C)C(C)(C)[C@@H]5CC[C@@]4(C)[C@]3(C)CC[C@@]2(c2ncc(-c3ccc(F)cc3)[nH]2)CC1=O	> 8.00	< 7.30	
CC(C)C1=C2[C@H]3CC[C@@H]4[C@@]5(C)CC[C@H](OC(=O)[C@H]6C[C@@H](C(=O)O)C6(C)C)C(C)(C)[C@@H]5CC[C@@]4(C)[C@]3(C)CC[C@@]2(c2ncc(-c3ccc(Cl)cc3)[nH]2)CC1=O	> 8.00	7.30 to 8.00	
